This assay has as its system Ca^2+ spiking in Neurospora crassa conidia expressing GCaMP6s. Kind of assay: Ca^2+ spiking in single conidia expressing GCaMP6s. It is filed as cell-based. As to conditions: conidia pre-treated with 5 mM BAPTA before ddH2O or PAF26 treatment.

This note sets out measurements from paper doi:10.1101/2020.02.14.948786v2 (bioRxiv, 2020).

As to `O=C(O)CN(CC(=O)O)c1ccccc1OCCOc1ccccc1N(CC(=O)O)CC(=O)O` [BAPTA], the “frequency of Ca^2+ spiking after chelation of external Ca^2+” value stood at 0.
